Data taken from US11479570B2, “Pentafluorophosphate derivative, its uses and an appropriate manufacturing method” (FREIE UNIVERSITÄT BERLIN, priority 2017, dated 2022).
“Also recorded” adds a separate entry of the source. Read-outs that look alike come from different tables or passages of the source.

Columns and labels:
[1] = target: T1, protein tyrosine phosphatase PTP1B (Homo sapiens, UniProt P18031); assay: PTP1B enzyme assay (detection of chromogenic para-nitrophenolate); format: biochemical; settings: for Ki: detection of the chromogenic para-nitrophenolate at 405 nm, read-out: inhibition constant KI (inhibitory effect on PTP1B in an enzyme assay)
T1 sequence (P18031 1-435): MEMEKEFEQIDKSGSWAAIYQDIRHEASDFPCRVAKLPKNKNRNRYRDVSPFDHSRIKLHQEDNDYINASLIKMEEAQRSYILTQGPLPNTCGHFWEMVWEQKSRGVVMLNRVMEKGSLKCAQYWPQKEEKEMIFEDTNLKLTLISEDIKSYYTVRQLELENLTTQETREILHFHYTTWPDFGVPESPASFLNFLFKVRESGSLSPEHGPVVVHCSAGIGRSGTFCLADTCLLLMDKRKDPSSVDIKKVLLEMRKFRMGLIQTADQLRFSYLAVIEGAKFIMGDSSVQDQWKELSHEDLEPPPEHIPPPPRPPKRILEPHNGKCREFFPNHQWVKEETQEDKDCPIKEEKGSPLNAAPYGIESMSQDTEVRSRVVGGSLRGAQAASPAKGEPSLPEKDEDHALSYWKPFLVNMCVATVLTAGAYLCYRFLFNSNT
From the text: (§1) In order to enhance the solubility in aqueous systems and to exclude any interfering effects of the counter ion NMe4^+, compound 13 was transferred into its sodium salt 13-Na.
During the measurements of the inhibitory effect of 13-Na, inhibitors with known inhibition constants were used in parallel as positive controls in order to verify the reliability of the assay.

[2] = Lipophilicity from elution properties on RP-HPLC; format: physicochemical; settings: in accordance with elution properties on RP-HPLC
Experimental: Formation of α,α-difluorobenzyl-penta-P-fluorophosphate 13 was confirmed by HPLC-MS analysis displaying very uncommon elution properties both on C8 and C18 reversed phase silica. While the phosphonic acid 12 eluted at 3.4 min on RP-18 material displaying a symmetric peak and a characteristic UV spectrum, compound 13 interacted strongly with the column material, resulting in elution after 9 min at the very end of the default gradient (5 to 95% ACN in water). Additionally, no absorbance of 13 at 210 nm, 254 nm and 290 nm could be observed. These properties hampered chromatographic purifications like reverse phase MPLC.

Solubility = format: physicochemical; settings: tetramethylammonium salt
From the text: The obtained product 14-Na (cf. FIG. 5B) was stable and well soluble in the used biochemical buffer.

[3] = Stability in aqueous solution by 19F-NMR spectroscopy; format: physicochemical; settings: pH range from 2 to 12 in aqueous solution, D2O, after several hours
From the text: as §1

[4] = target: T1, protein tyrosine phosphatase PTP1B; settings: data published (literature), cited from earlier work

Compound: C[N+](C)(C)C.FC(F)(c1ccc2ccccc2c1)[P-](F)(F)(F)(F)F [compound 14, tetramethylammonium (difluoro-(naphtha-2-yl)-methyl)-penta-P-fluorophosphate]
- Ki [1]: 26 µM

Compound: C[N+](C)(C)C.FC(F)(c1ccccc1)[P-](F)(F)(F)(F)F [compound 13, tetramethylammonium (difluoro-(phenyl)-methyl)-penta-P-fluorophosphate]
- lipophilicity compared to phosphonate 12 [2]: significantly more lipophilic
- solubility in acetonitrile versus water (Solubility): more soluble in acetonitrile than in water
- inhibitory potential towards PTP1B (in words) [1]: reversible inhibitor; also recorded: significant affinity
- Ki [1]: 1800 µM
- stability (degradation or hydrolysis) [3]: no degradation or hydrolysis could be observed

Compound: O=P(O)(O)Cc1ccccc1 [Benzyl phosphonic acid]
- Inhibitory effect on PTP1B in an enzyme assay (in words) ([4]; comparative example): No inhibition

Compound: Fluorobenzyl phosphonic acid
- Ki ([4]; comparative examples, read-out: Inhibitory effect on PTP1B in an enzyme assay, KI): ~5000 µM
